The text below walks through data of patent US11185552B2, “Inhibitors of glucose-6-phosphate dehydrogenase for treating cardiovascular and pulmonary conditions” (ICHOR, LLC., priority 2016, dated 2021).

In test [1] the test system is Rat pulmonary artery smooth muscle cells. Briefly: Cell number/proliferation by Cyquant assay. The class given is cell-based. The note with it: 72 hr treatment, versus vehicle control. The method, then: (§1) FIGS. 4A and 4B are graphs showing results for rat pulmonary artery smooth muscle cells that were cultured in 15% DMEM media for 48 hr and cells were treated with newly synthesized G6PD drugs; PD109 (109), PD2124 (2124), PD2958 (2958) and PD4091 (4091) or vehicle control (Con) for 72 hr. Cell number/proliferation (FIG. 4A) and apoptosis (FIG. 4B) was determined by Cyquant and Caspase3/7 assay, respectively. Cell numbers were decreased by G6PD inhibitors (FIG. 4A). Cell apoptosis was increased by PD2958 (1 microM) N=5 in each group (FIG. 4B).
(§2) Rat pulmonary artery smooth muscle cells were cultured in 15% DMEM media for 48 hr and cells were treated with newly synthesized G6PD drugs; PD109 (109), PD2124 (2124), PD2958 (2958) and PD4091 (4091) or vehicle control (Con) for 72 hr. Cell number/proliferation and apoptosis was determined by Cyquant and Caspase3/7 assay, respectively. Cell numbers were decreased by G6PD inhibitors. Cell apoptosis was increased by PD2958 (1 microM) N=5 in each group (FIGS. 4A and 4B).

For test [2], the system named is Bovine pulmonary artery rings. Briefly: Relaxation of KCl pre-contracted bovine pulmonary artery rings. The note with it: pre-contracted with KCl (30 mM), Krebs buffer. On the procedure: FIG. 6 is a graph showing bovine pulmonary artery rings that were incubated in Krebs buffer and pre-contracted with KCl (30 mM). These pre-contracted rings relaxed by G6PD inhibitors; PD109 (109), PD2124 (2124), PD2958 (2958) and PD4091 (4091) or dehydroepiandrosterone (DHEA).
Bovine pulmonary artery rings were incubated in Krebs buffer and pre-contracted with KCl (30 mM). These pre-contracted rings relaxed by G6PD inhibitors; PD109 (109), PD2124 (2124), PD2958 (2958) and PD4091 (4091) or dehydroepiandrosterone (DHEA) (FIG. 6).

In test [3] the test system is Bovine pulmonary arteries. Briefly: Smooth muscle protein expression in bovine pulmonary arteries incubated in Krebs buffer. To be noted: 12 hr. The method, then:
FIGS. 3A and 3B are graphs showing results for bovine pulmonary arteries that were incubated in Krebs buffer with and without G6PD inhibitor PD2958 (2958) and PD2124 (2124) for 12 hr. Vascular smooth cell-specific protein myocardin (MYOCD; FIG. 3A) and smooth muscle myosin heavy chain (MHY11; FIG. 3B) expression was increased by PD2958 (10 microM) and PD2124 (1 microM).
Bovine pulmonary arteries were incubated in Krebs buffer with and without G6PD inhibitor PD2958 (2958) and PD2124 (2124) for 12 hr. Vascular smooth cell-specific protein myocardin (MYOCD) and smooth muscle myosin heavy chain (MHY11) expression was increased by PD2958 (10 microM) and PD2124 (1 microM) (FIGS. 3A and 3B).

The test system of test [4] is mice with pulmonary hypertension. Briefly: Hypoxia (10% O2) pulmonary hypertension in mice. Format: in vivo. To be noted: S.C. 1.3 mg/Kg for 1 wk from wk 4 to wk 5, 10% O2. The method, then: Placebo and 2124 were injected S.C. (1.3 mg/Kg) for 1 wk from wk 4 to wk 5.
Another test has as its target G6PD (Homo sapiens, UniProt P11413). Briefly: G6PD activity inhibition (enzyme assay).
Test [5] concerns Aortic rings of G6PD-deficient mice. In words: Relaxation of KCl pre-contracted aortic rings, G6PD-deficient mice. To be noted: KCl (30 mM). The method, then:
(§3) FIG. 7 is a graph showing aortic rings of wild-type and G6PD-deficient pre-contracted with KCl (30 mM).
(§4) Aortic rings of wild-type and G6PD-deficient pre-contracted with KCl (30 mM).

The subject of test [6] is Aortic rings of wild-type mice. In words: Relaxation of KCl pre-contracted aortic rings, wild-type mice. The note with it: KCl (30 mM). The method, then: as §3, §4
The test system of test [7] is Rat pulmonary artery smooth muscle cells. In words: Apoptosis by Caspase3/7 assay. The class given is cell-based. To be noted: 1 microM, 72 hr, N=5. On the procedure: as §1, §2
Test [8] shares this test system. In words: Cell migration. To be noted: 1 microM, 72 hr, N=5. The class given is cell-based. On the procedure:
FIGS. 5A and 5B are images (FIG. 5A) and a graph (FIG. 5B) showing rat pulmonary artery smooth muscle cells that were cultured in 15% DMEM media for 48 hr and cells were treated with newly synthesized G6PD drugs; PD2958 (2958) or vehicle control (Con) for 72 hr. Cells migration was determined. Cell migration was abrogated by PD2958 (1 microM). N=5 in each group.
Rat pulmonary artery smooth muscle cells were cultured in 15% DMEM media for 48 hr and cells were treated with newly synthesized G6PD drugs; PD2958 (2958) or vehicle control (Con) for 72 hr. Cells migration was determined. Cell migration was abrogated by PD2958 (1 microM). N=5 in each group (FIGS. 5A and 5B).

Chain of G6PD (P11413 whole entry): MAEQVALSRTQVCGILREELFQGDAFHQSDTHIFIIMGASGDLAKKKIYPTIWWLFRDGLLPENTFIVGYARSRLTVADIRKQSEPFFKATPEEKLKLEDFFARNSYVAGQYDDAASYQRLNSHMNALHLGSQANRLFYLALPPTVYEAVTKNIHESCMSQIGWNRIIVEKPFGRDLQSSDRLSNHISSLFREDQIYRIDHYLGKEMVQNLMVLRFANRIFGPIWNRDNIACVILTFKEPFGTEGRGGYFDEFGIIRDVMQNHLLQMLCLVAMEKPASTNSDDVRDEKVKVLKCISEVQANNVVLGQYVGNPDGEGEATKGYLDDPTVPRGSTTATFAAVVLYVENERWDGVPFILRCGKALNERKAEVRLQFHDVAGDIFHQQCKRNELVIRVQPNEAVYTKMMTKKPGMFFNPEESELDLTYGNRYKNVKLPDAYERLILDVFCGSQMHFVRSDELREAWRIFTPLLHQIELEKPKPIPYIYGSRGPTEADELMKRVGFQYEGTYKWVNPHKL

As for `C[C@]12CC[C@H](O)CC1=CC[C@@H]1[C@@H]2CC[C@]2(C)C(=O)CC[C@@H]12` [PD109, 5-Androsten-3-beta-hydroxy-17-one (Dehydroepiandrosterone), reference compound], the Cell number/proliferation entry in [1] is “decreased”. Moreover, the “relaxation of pre-contracted pulmonary artery rings” value in test [2] was “relaxed”.
On to `C[C@]12CC[C@H](O)C[C@@H]1CC[C@@H]1[C@@H]2CC[C@]2(C)[C@@H](C(=O)CO)CC[C@@H]12` [PD2124, (3β,5α)-3,21-Dihydroxypregnan-20-one], for which, in test [3] (1 microM), the “myocardin (MYOCD) expression” value is “increased” and the “smooth muscle myosin heavy chain (MHY11) expression” value is “increased”. Further, in test [4], the TPR result was “reduced and reversed”; the arterial elastance entry is “reduced and reversed”; the cardiac index result is “increased”; the “left ventricle (LV) stiffness” value is “reduced and reversed”. Further, in test [4], the “pulmonary resistance determined as PAAT-to-ET ratio” value was “reduced and reversed”. Also, at G6PD, the IC50 lay within 1 to 10 µM. In test [1], the Cell number/proliferation result is “decreased”. For the same compound, in test [2], the “relaxation of pre-contracted pulmonary artery rings” value is on record as “relaxed”.
Consider `CCNC(=O)N[C@H]1CC[C@@]2(C)[C@@H](CC[C@@H]3[C@@H]2CC[C@]2(C)C(=O)CC[C@@H]32)C1` [PD2958, N-Ethyl-N′-[(3β,5α)-17-oxoandrostan-3-yl]urea], for which, in test [5], the “relaxation of pre-contracted aortic rings” value is on record as “not G6PD-deficient mice were relaxed”. In addition, in test [6], the “relaxation of pre-contracted aortic rings” value is given as “relaxed in dose-dependent manner”. Moreover, in test [3] (10 microM), the “myocardin (MYOCD) expression” value is “increased” and the “smooth muscle myosin heavy chain (MHY11) expression” value was “increased”. For the same compound, the Cell apoptosis entry in [7] is listed as “increased”. At G6PD, this compound returned an IC50 of 1 to 10 µM. For the same compound, the Cell migration entry in test [8] was “abrogated”. Further, the Cell number/proliferation result in [1] was “decreased”. For the same compound, the “relaxation of pre-contracted pulmonary artery rings” value in test [2] is on record as “relaxed”.
As to `CC(=O)[C@H]1CC[C@H]2[C@@H]3CC[C@H]4C[C@@H](NS(C)(=O)=O)CC[C@]4(C)[C@H]3CC[C@]12C` [PD4091, N-[(3β,5α)-20-Oxopregnan-3-yl]methanesulfonamide], the IC50 on G6PD was in the range of 1 to 10 µM.

As usually defined, the IC50 is the concentration at which inhibition is half-maximal. Low readings indicate higher potency, high ones lower potency.
